This is an account of results in patent US20240254118A1, “PRMT5 INHIBITORS AND USES THEREOF” (Gilead Sciences, Inc., priority 2022, published 2024).

Assay [1] concerns HCT116 MTAP-deleted cells. In words: Cell viability assay (CellTiter-Glo, 7 days), HCT116 MTAP-deleted. To be noted: Homo sapiens, HCT-116, 168 h.
Assay [2] deals with SDMA signal (PRMT5 inhibition) in HCT116 MTAP-deleted cells. In words: Symmetric di-methyl arginine image-based high content screen assay (SDMA assay), HCT116 MTAP-deleted. The conditions noted are these: SDMA assay; for EC50: Homo sapiens, HCT-116, 72 h, 3 days of treatment, cell line not given, taken as HCT116 MTAP-deleted, read-out: EC50 (SDMA assay); for EC50 selectivity (SDMA assay): taken as HCT116 WT vs MTAP-deleted. It counts as cell-based. The gist of the method:
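Read-out: per-cell mean SDMA immunofluorescence (Alexa Fluor 488 secondary), cells segmented by DAPI on a high-content imager. Compound exposure in HCT116 MTAP-deleted cells lasted until fixation on Day 3; overnight 4° C primary anti-SDMA antibody staining.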

For `CC(=O)N(C)N(Cc1sc2ccccc2c1Cl)C(=O)c1ccc2nc(N)c3cnn(C)c3c2c1` [Example 442, N′-acetyl-4-amino-N-((3-chlorobenzo[b]thiophen-2-yl)methyl)-N′,1-dimethyl-1H-pyrazolo[4,3-c]quinoline-8-carbohydrazide], in assay [1], the CC50 was less than 100 nM. In addition, in assay [2], the EC50 is less than 1 nM and the “EC50 selectivity (SDMA assay)” value was 163.

Take `Cn1ncc2c(N)nc3ccc(C(=O)N(Cc4ccc(C(F)(F)F)cn4)NC(=O)C4CC4)cc3c21` [Example 443, 4-amino-N′-(cyclopropanecarbonyl)-1-methyl-N-((5-(trifluoromethyl)pyridin-2-yl)methyl)-1H-pyrazolo[4,3-c]quinoline-8-carbohydrazide]: the CC50 in assay [1] was less than 100 nM. Besides, in assay [2], the concentration for a half-maximal effect (EC50) is less than 1 nM and the “EC50 selectivity (SDMA assay)” value came out at 400.

`CC(=O)N(C)N(Cc1sc2ccccc2c1Br)C(=O)c1ccc2nc(N)c3cnn(C)c3c2c1` [Example 444, N′-acetyl-4-amino-N-((3-bromobenzo[b]thiophen-2-yl)methyl)-N′,1-dimethyl-1H-pyrazolo[4,3-c]quinoline-8-carbohydrazide]: the CC50 in assay [1] is less than 100 nM. In addition, in assay [2], the EC50 is less than 1 nM and the “EC50 selectivity (SDMA assay)” value amounted to 117.

Molecule `CC(=O)NN(Cc1ccc(C(F)(F)F)cc1F)C(=O)c1ccc2nc(N)c3cnn(C)c3c2c1` [Example 445, N′-acetyl-4-amino-N-(2-fluoro-4-(trifluoromethyl)benzyl)-1-methyl-1H-pyrazolo[4,3-c]quinoline-8-carbohydrazide] showed a CC50 in assay [1] of less than 100 nM. Besides, in assay [2], the EC50 was less than 1 nM and the “EC50 selectivity (SDMA assay)” value worked out at 69.

`CC(=O)N(C)N(Cc1ccc(OC(F)F)cc1Cl)C(=O)c1ccc2nc(N)c3cnn(C)c3c2c1` [Example 447, N′-acetyl-4-amino-N-(2-chloro-4-(difluoromethoxy)benzyl)-N′,1-dimethyl-1H-pyrazolo[4,3-c]quinoline-8-carbohydrazide] displayed a CC50 in assay [1] of less than 100 nM. Further, in assay [2], the 50% effective concentration (EC50) was less than 1 nM and the “EC50 selectivity (SDMA assay)” value is 49.

`CC(=O)N(C)N(Cc1c(Cl)ccc(F)c1F)C(=O)c1ccc2nc(N)c3cnn(C)c3c2c1` [Example 448, N′-acetyl-4-amino-N-(6-chloro-2,3-difluorobenzyl)-N′,1-dimethyl-1H-pyrazolo[4,3-c]quinoline-8-carbohydrazide] had a CC50 in assay [1] of less than 100 nM. Further, in assay [2], the EC50 lay within 1 to 5 nM and the “EC50 selectivity (SDMA assay)” value amounted to 224.

`CN(Cc1ccccn1)N(Cc1ccc(C(F)(F)F)cn1)C(=O)c1cc2c(cc1F)nc(N)c1cnn(C)c12` [Example 449, 4-amino-7-fluoro-N′,1-dimethyl-N′-(pyridin-2-ylmethyl)-N-((5-(trifluoromethyl)pyridin-2-yl)methyl)-1H-pyrazolo[4,3-c]quinoline-8-carbohydrazide] registered a CC50 in assay [1] of less than 100 nM. Further, in assay [2], the EC50 fell in the range of 1 to 5 nM and the “EC50 selectivity (SDMA assay)” value is listed as 62.

`CC(=O)N(C)N(Cc1cc(F)c(F)cc1Cl)C(=O)c1ccc2nc(N)c3cnn(C)c3c2c1` [Example 450, N′-acetyl-4-amino-N-(2-chloro-4,5-difluorobenzyl)-N′,1-dimethyl-1H-pyrazolo[4,3-c]quinoline-8-carbohydrazide] returned a half-maximal cytotoxic concentration (CC50) in assay [1] of less than 100 nM. Moreover, in assay [2], the EC50 was less than 1 nM and the “EC50 selectivity (SDMA assay)” value is recorded as 394.

On to `CC(=O)N(C)N(Cc1ccc(F)cc1Cl)C(=O)c1ccc2nc(N)c3cnn(C)c3c2c1` [Example 451, N′-acetyl-4-amino-N-(2-chloro-4-fluorobenzyl)-N′,1-dimethyl-1H-pyrazolo[4,3-c]quinoline-8-carbohydrazide], for which, in assay [1], the 50% cytotoxic concentration (CC50) is less than 100 nM. In assay [2], the EC50 is less than 1 nM and the “EC50 selectivity (SDMA assay)” value worked out at 111.

As to `CC(=O)N(C)N(Cc1ccc(F)cc1C#N)C(=O)c1ccc2nc(N)c3cnn(C)c3c2c1` [Example 452, N′-acetyl-4-amino-N-(2-cyano-4-fluorobenzyl)-N′,1-dimethyl-1H-pyrazolo[4,3-c]quinoline-8-carbohydrazide], the CC50 in assay [1] is less than 100 nM. Moreover, in assay [2], the EC50 is less than 1 nM and the “EC50 selectivity (SDMA assay)” value stood at 213.

The molecule `CN(CC1CCC1)N(Cc1ccc(C(F)(F)F)cn1)C(=O)c1cc2c(cc1F)nc(N)c1cnn(C)c12` [Example 453, 4-amino-N′-(cyclobutylmethyl)-7-fluoro-N′,1-dimethyl-N-((5-(trifluoromethyl)pyridin-2-yl)methyl)-1H-pyrazolo[4,3-c]quinoline-8-carbohydrazide] had a CC50 in assay [1] of less than 100 nM. Also, in assay [2], the EC50 was less than 1 nM and the “EC50 selectivity (SDMA assay)” value was determined as 15.

The molecule `CCC(=O)N(C)N(Cc1ncc(C(F)(F)F)cc1Cl)C(=O)c1ccc2nc(N)c3cnn(C)c3c2c1` [Example 454, 4-amino-N-((3-chloro-5-(trifluoromethyl)pyridin-2-yl)methyl)-N′,1-dimethyl-N′-propionyl-1H-pyrazolo[4,3-c]quinoline-8-carbohydrazide] came in with a CC50 in assay [1] of less than 100 nM. Further, in assay [2], the half-maximal effective concentration (EC50) is 1 to 5 nM and the “EC50 selectivity (SDMA assay)” value came to 421.

Consider `CCN(C)N(Cc1ccc(C(F)(F)F)cn1)C(=O)c1ccc2nc(N)c3cnn(C)c3c2c1` [Example 455, 4-amino-N′-ethyl-N′,1-dimethyl-N-((5-(trifluoromethyl)pyridin-2-yl)methyl)-1H-pyrazolo[4,3-c]quinoline-8-carbohydrazide], for which the CC50 in assay [1] is less than 100 nM. Moreover, in assay [2], the EC50 is less than 1 nM and the “EC50 selectivity (SDMA assay)” value came out at 92.

In the case of `CCN(C)N(Cc1ccc(C(F)(F)F)cn1)C(=O)c1cc2c(cc1F)nc(N)c1cnn(C)c12` [Example 456, 4-amino-N′-ethyl-7-fluoro-N′,1-dimethyl-N-((5-(trifluoromethyl)pyridin-2-yl)methyl)-1H-pyrazolo[4,3-c]quinoline-8-carbohydrazide], in assay [1], the CC50 was less than 100 nM. In assay [2], the EC50 was less than 1 nM and the “EC50 selectivity (SDMA assay)” value is listed as 25.

In assay [1], `CC(=O)N(C)N(Cc1ccc(Cl)cc1C#N)C(=O)c1ccc2nc(N)c3cnn(C)c3c2c1` [Example 457, N′-acetyl-4-amino-N-(4-chloro-2-cyanobenzyl)-N′,1-dimethyl-1H-pyrazolo[4,3-c]quinoline-8-carbohydrazide] showed a CC50 of less than 100 nM. Also, in assay [2], the EC50 is less than 1 nM and the “EC50 selectivity (SDMA assay)” value came out at 90.
